Measurements published in PMC6522510 (Nature Communications, 2019).
Structures can show the parent of a compound that is named as a salt. Where two headings read alike, the source gives them in different places.

Tests used:
Parameters in all cases: species or system AML cell lines (8); Primary HTS, single concentration about 10 uM, Cell Titer Glo viability; log10 luminescence, per cent inhibition relative to cycloheximide control
Conditions in all cases: 72 h, relative to cycloheximide control, log10 luminescence, inhibitor
[1] = test system: CHRF288-11
[2] = test system: CMK
[3] = test system: CMS
[4] = test system: M07e
[5] = test system: ML-2
[6] = test system: MOLM-13
[7] = test system: MV4-11
[8] = test system: U937

Compound	CHRF288-11 %inh ([1]; CHRF288-11 %inh, 10 µM) [%]	CMK %inh ([2]; CMK %inh, 10 µM) [%]	CMS %inh ([3]; CMS %inh, 10 µM) [%]	M07e %inh ([4]; M07e %inh, 10 µM) [%]	ML-2 %inh ([5]; ML-2 %inh, 10 µM) [%]	MOLM-13 %inh ([6]; MOLM-13 %inh, 10 µM) [%]	MV4-11 %inh ([7]; MV4-11 %inh, 10 µM) [%]	U937 %inh ([8]; U937 %inh, 10 µM) [%]	CHRF288-11 %inh [1] [%]	CMK %inh [2] [%]	CMS %inh [3] [%]	M07e %inh [4] [%]	ML-2 %inh [5] [%]	MOLM-13 %inh [6] [%]	MV4-11 %inh [7] [%]	U937 %inh [8] [%]
CN[C@@H]1[C@H](O[C@H]2[C@H](O[C@H]3[C@H](O)[C@@H](O)[C@H](N=C(N)N)[C@@H](O)[C@@H]3N=C(N)N)O[C@@H](C)[C@]2(O)C=O)O[C@@H](CO)[C@H](O)[C@H]1O [SJ000285297-4, STREPTOMYCIN SULFATE]	6.76	3.295	-1.268	-4.718	-3.476	1.953	-1.642	-1.404	–	–	–	–	–	–	–	–
CN[C@@H]1[C@H](O[C@H]2[C@H](O[C@H]3[C@H](O)[C@@H](O)[C@H](N=C(N)N)[C@@H](O)[C@@H]3N=C(N)N)O[C@@H](C)[C@]2(O)C=O)O[C@@H](CO)[C@H](O)[C@H]1O [SJ000285297-5, STREPTOMYCIN SULFATE]	-4.766	-3.106	-4.665	1.975	1.375	2.09	1.701	-2.931	–	–	–	–	–	–	–	–
Oc1c(Cl)cc(Cl)c2cccnc12 [SJ000285324-3, CHLOROXINE]	–	–	–	–	–	–	–	–	73.25	45.1	2.824	20.56	49.1	6.345	77.67	23.85
CC(C)(Oc1ccc(Cl)cc1)C(=O)O [SJ000285361-4, CLOFIBRIC ACID]	–	–	–	–	–	–	–	–	12.15	-0.9561	10.42	1.241	4.873	6.685	17.98	12.99
COc1ccc(Cl)cc1C(=O)NCCc1ccc(S(=O)(=O)NC(=O)NC2CCCCC2)cc1 [SJ000285391-7, GLYBURIDE | GLIBENCLAMIDE]	–	–	–	–	–	–	–	–	12.75	-6.568	-0.9752	3.672	1.589	3.373	0.5716	0.5073
CCC1(C)CC(=O)NC1=O (stereo not drawn) [SJ000285397-7, ETHOSUXIMIDE]	–	–	–	–	–	–	–	–	0.04293	-1.781	-0.558	-0.04938	3.243	28.73	-0.6847	0.5757
O=C1CCc2cc(OCCCCc3nnnn3C3CCCCC3)ccc2N1 [SJ000285433-6, CILOSTAZOL]	–	–	–	–	–	–	–	–	-1.23	3.033	1.219	4.292	-1.307	2.454	1.479	-1.919
COCCOC(=O)C1=C(C)NC(C)=C(C(=O)OC(C)C)C1c1cccc([N+](=O)[O-])c1 (stereo not drawn) [SJ000285435-8, NIMODIPINE]	5.054	-2.491	-0.4109	-0.8371	3.664	3.286	7.361	6.247	–	–	–	–	–	–	–	–
COCCOC(=O)C1=C(C)NC(C)=C(C(=O)OC(C)C)C1c1cccc([N+](=O)[O-])c1 (stereo not drawn) [SJ000285435-9, NIMODIPINE]	6.868	3.053	-2.02	0.4803	2.121	3.201	8.576	7.911	–	–	–	–	–	–	–	–
COCCOC(=O)C1=C(C)NC(C)=C(C(=O)OC(C)C)C1c1cccc([N+](=O)[O-])c1 (stereo not drawn) [SJ000285435-10, NIMODIPINE]	10.94	2.191	10.67	6.293	3.623	3.657	10.46	7.013	–	–	–	–	–	–	–	–
CC1=Nc2ccc(Cl)cc2S(=O)(=O)N1 [SJ000285438-7, DIAZOXIDE]	–	–	–	–	–	–	–	–	3.174	-0.09563	-4.011	-1.23	-2.212	13.73	-7.128	2.608
COc1ccc2cc(CCC(C)=O)ccc2c1 [SJ000285475-3, NABUMETONE]	-3.141	0.8703	0.5932	3.981	2.121	0.1221	0.7976	-2.289	–	–	–	–	–	–	–	–
COc1ccc2cc(CCC(C)=O)ccc2c1 [SJ000285475-4, NABUMETONE]	-4.035	3.657	-2.394	-0.5005	1.434	3.416	-0.967	0.6601	–	–	–	–	–	–	–	–
CC(CN(C)C)CN1c2ccccc2Sc2ccccc21 (stereo not drawn) [SJ000285488-4, TRIMEPRAZINE TARTRATE]	–	–	–	–	–	–	–	–	12.91	71.37	-1.909	5.667	2.204	6.284	2.005	3.719
CC(C)(S)[C@@H](N)C(=O)O [SJ000285530-3, PENICILLAMINE]	–	–	–	–	–	–	–	–	1.093	-2.957	1.349	4.147	0.1436	4.905	0.7087	-1.029
CN1C(C(=O)Nc2ccccn2)=C(O)c2ccccc2S1(=O)=O [SJ000285539-7, PIROXICAM]	-2.388	-2.958	-2.071	-0.7405	0.4088	-0.4149	-0.5288	1.434	–	–	–	–	–	–	–	–
CN1C(C(=O)Nc2ccccn2)=C(O)c2ccccc2S1(=O)=O [SJ000285539-8, PIROXICAM]	-0.4698	-3.417	1.221	1.469	0.7358	-0.7172	0.9197	-0.5241	–	–	–	–	–	–	–	–
C[C@]12C=CC(=O)C=C1CC[C@@H]1[C@@H]2C(=O)C[C@@]2(C)[C@H]1CC[C@]2(O)C(=O)CO [SJ000285543-4, PREDNISONE]	3.346	-3.067	-1.906	-1.735	-1.792	-1.419	-0.9421	-1.889	–	–	–	–	–	–	–	–
C[C@]12C=CC(=O)C=C1CC[C@@H]1[C@@H]2C(=O)C[C@@]2(C)[C@H]1CC[C@]2(O)C(=O)CO [SJ000285543-5, PREDNISONE]	4.454	-3.757	-1.984	3.17	-0.9024	-2.385	0.6819	-0.6066	–	–	–	–	–	–	–	–
CCCCC1C(=O)N(c2ccccc2)N(c2ccccc2)C1=O [SJ000285567-6, PHENYLBUTAZONE]	–	–	–	–	–	–	–	–	-2.959	-7.117	-0.9956	3.977	1.616	-1.33	1.406	-1.746
O=c1c(-c2ccc(O)cc2)coc2cc(O)ccc12 [SJ000285588-6, DAIDZEIN]	–	–	–	–	–	–	–	–	1.05	-0.373	-1.1	1.994	-1.236	-0.07438	0.1059	-0.9488
